Measurements as given in patent US20260317546A1, “PRETARGETED BIMODAL IMAGING AGENTS” (KØBENHAVNS UNIVERSITET, priority 2023, published 2026).

How the values were obtained:
[1] = tested on: anti-TAG72 mAb CC49 modified with TCO-tags (CC49-TCO) in LS174T tumor xenografts
Procedure: This assay employs anti-TAG72 mAb CC49 modified with TCO-tags (CC49-TCO) and [111In]In-DOTA-PEG11-BisPy-Tz (FIG. 1) with well-established performance in pretargeted imaging of TAG72 expressing LS174 tumor xenografts.
LS174T xenograft-bearing mice are injected with CC49-TCO. After allowing for accumulation for 72 h, the tetrazine to be evaluated is injected via the tail vein, followed by [111In]In-DOTA-PEG11-BisPy-Tz after 1 h. in vivo performance of the tetrazine to be evaluated can therefore be correlated to tumor uptake of [111In]In-DOTA-PEG11-BisPy-Tz after 22 h. Increased in vivo performance is reflected by lower tumor uptake (see FIG. 1).
Further, a negative control (−C) and a positive control (+C) are included.

[2] = tested on: TCO-modified CC49 (CC49-TCO) targeting TAG-72 in human colorectal cancer LS174T xenograft tumors; experiment: Pretargeted fluorescence imaging, ex vivo fluorescence measurements of selected organs; assay type: in vivo, Balb/c nude mice; conditions: TCO-modified CC49 vs non-modified CC49 (control); compound 8 i.v. 72 h after antibody, 86.5 μg, 116.7 nmol; 1 h post injection; 488 nm excitation, 525/20 emission
Procedure: Pretargeted imaging of compound 8 of Example 1 was tested in vivo.
Pretargeted imaging of compound 8 of Example 1 was tested in vivo using the monoclonal antibody CC49 targeting TAG-72 in human colorectal cancer LS174T xenograft tumors. Tumors were established in 7-8 week old Balb/c nude mice and after 10 days, the animals were injected i.v. with either 50 μg (0.33 nmol) TCO-modified CC49 (CC49-TCO, ~3.5 TCO/mAb), or non-modified CC49 (control) (n=3 per group). After 72 hours, compound 8 (~100 equivalents per TCO, 86.5 μg, 116.7 nmol) in 100 μL of PBS (pH=7.4) was injected i.v.. One hour post injection, selected organs were harvested for ex vivo fluorescence measurements using a Amersham Typhoon 5 laser scanner platform (GE healthcare Europe) using a 488 nm excitation laser and 525/20 emission filter.

CC1=CC(C)=[N+]2C1=C(c1ccnc(-c3nnc(-c4ccc(CN(CC(=O)O)CC(=O)O)cn4)nn3)c1)c1c(C)cc(C)n1[B-]2(F)F [Compound 7, 2,2′-(((6-(6-(4-(5,5-difluoro-1,3,7,9-tetramethyl-5H-4λ4,5λ4-dipyrrolo[1,2-c:2′,1′-f][1,3,2]diazaborinin-10-yl)pyridin-2-yl)-1,2,4,5-tetrazin-3-yl)pyridin-3-yl)methyl)azanediyl)diacetic acid]
blocking effect [1]: 93%

CC1=CC(C)=[N+]2C1=C(c1ccc(-c3nnc(-c4ccc(CN(CC(=O)O)CC(=O)O)cn4)nn3)nc1)c1c(C)cc(C)n1[B-]2(F)F [Compound 8, 2,2′-(((6-(6-(5-(5,5-difluoro-1,3,7,9-tetramethyl-5H-4λ4,5λ4-dipyrrolo[1,2-c:2′,1′-f][1,3,2]diazaborinin-10-yl)pyridin-2-yl)-1,2,4,5-tetrazin-3-yl)pyridin-3-yl)methyl)azanediyl)diacetic acid]
blocking effect [1]: 98% | fluorescence in tumor (ex vivo) [2]: higher fluorescence in tumor
